Data from patent publication US20110039721A1, “METHOD FOR PREDICTION ABOUT CARCINOGENICITY OF SUBSTANCE IN RODENT” (Chemicals Evaluation and Research Institute, priority 2007, published 2011).

What was measured:
rodent = settings: classification C+/C−; cited from earlier work
[1] = system: mRNA expressed from the genes (A) to (D) in rat liver; assay: Behavior of genes (mRNA expression level, oligo-DNA microarray) in rat liver after 28-day oral administration; assay type: in vivo
Summary of the method: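 Male F344 SPF rats, 5 weeks old, four per group, received carcinogens, non-carcinogens or solvent vehicle by oral gavage once daily for 28 days. Liver total RNA was then extracted. Changes of ≥1.5-fold or ≤1/1.5 versus vehicle control, in a consistent direction across carcinogens, counted as significant.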

liver = settings: in vivo; cited from earlier work
[2] = classification M+/M−; cited from earlier work

## O=CCCCC=O [TS081, Glutaraldehyde]
rodent
  Carcinogenicity: C−
[1]; Gene No. 154, Rn.185941, group (C)
  Behavior of gene caused by administration of chemical substance: −
[1]; Gene No. 533, Rn.106184, group (C)
  Behavior of gene caused by administration of chemical substance: +
[1]; Gene No. 725, Rn.108075, group (C)
  Behavior of gene caused by administration of chemical substance: −
[1]; Gene No. 813, Rn.201760, group (C)
  Behavior of gene caused by administration of chemical substance: −
[1]; Gene No. 893, Rn.164817, group (C)
  Behavior of gene caused by administration of chemical substance: −
[1]; Gene No. 1119, Rn.9757, group (C)
  Behavior of gene caused by administration of chemical substance: −
[1]; Gene No. 1131, Rn.144946, group (C)
  Behavior of gene caused by administration of chemical substance: −
[1]; Gene No. 1163, Rn.11766, group (C)
  Behavior of gene caused by administration of chemical substance: −
[1]; Gene No. 1334, Rn.120914, group (C)
  Behavior of gene caused by administration of chemical substance: −
[1]; Gene No. 1494, Rn.1430, group (B)
  Behavior of gene caused by administration of chemical substance: −
[1]; Gene No. 1562, Rn.14744, group (C)
  Behavior of gene caused by administration of chemical substance: −
[1]; Gene No. 1741, Rn.1647, group (C)
  Behavior of gene caused by administration of chemical substance: −
[1]; Gene No. 1993, Rn.18728, group (C)
  Behavior of gene caused by administration of chemical substance: −
[1]; Gene No. 2026, Rn.167075, group (A)
  Behavior of gene caused by administration of chemical substance: −
[1]; Gene No. 2045, Rn.19329, group (B)
  Behavior of gene caused by administration of chemical substance: −
[1]; Gene No. 2203, Rn.21240, group (B)
  Behavior of gene caused by administration of chemical substance: −
[1]; Gene No. 2494, Rn.23969, group (C)
  Behavior of gene caused by administration of chemical substance: −
[1]; Gene No. 2546, Rn.24561, group (C)
  Behavior of gene caused by administration of chemical substance: −
[1]; Gene No. 3776, Rn.43232, group (C)
  Behavior of gene caused by administration of chemical substance: −
[1]; Gene No. 3929, Rn.4620, group (C)
  Behavior of gene caused by administration of chemical substance: −
[1]; Gene No. 4095, Rn.119024, group (C)
  Behavior of gene caused by administration of chemical substance: −
[1]; Gene No. 4218, Rn.167075, group (A)
  Behavior of gene caused by administration of chemical substance: −
[1]; Gene No. 4846, Rn.144554, group (A)
  Behavior of gene caused by administration of chemical substance: −
[1]; Gene No. 4973, Rn.118529, group (C)
  Behavior of gene caused by administration of chemical substance: +
[1]; Gene No. 5600, Rn.9836, group (A)
  Behavior of gene caused by administration of chemical substance: −
[1]; Gene No. 5634, Rn.9862, group (C)
  Behavior of gene caused by administration of chemical substance: −
[1]; Gene No. 5726, Rn.9939, group (D)
  Behavior of gene caused by administration of chemical substance: −
[1]; Gene No. 5878, Rn.143213, group (C)
  Behavior of gene caused by administration of chemical substance: −
[1]; Gene No. 6026, Rn.167685, group (C)
  Behavior of gene caused by administration of chemical substance: −
[1]; Gene No. 6182, Rn.5834, group (A)
  Behavior of gene caused by administration of chemical substance: −
[1]; Gene No. 6303, Rn.123063, group (C)
  Behavior of gene caused by administration of chemical substance: −
[1]; Gene No. 6620, Rn.120914, group (C)
  Behavior of gene caused by administration of chemical substance: −
[1]; Gene No. 6742, Rn.9779, group (C)
  Behavior of gene caused by administration of chemical substance: +
liver
  Liver carcinogenicity: Cr−
[2]
  Mutagenicity by Ames test: M+
